Experiments:
Type in all cases: cell-based
[1] = test system: A431 epidermal carcinoma cells; assay: Cell growth inhibition (CellTiter-Glo), A431; details: Homo sapiens, A-431, 72 h, 3 days
Excerpt: (§1) Esophageal carcinoma cell line OE33 was purchased from ECACC European Collection of Cell Cultures (UK). Breast cancer cell line JIMT-1 and gastric carcinoma cell line MKN-45 were purchased from Deutsche Sammlung von Mikroorganismen and Zellkulturen GmbH (Germany); KPL-4, a human breast cancer cell line was kindly provided by Prof. J Kurebayashi (Kawasaki Medical School, Kurashiki, Japan). […] The LICR-LON-HN5 head and neck carcinoma cell line (HN5) was a gift from the Institute of Cancer Research, Surrey, U.K. HN5C12 was developed by single-cell cloning of HN5 followed by exposure to increasing concentrations of lapatinib. […] Cell growth inhibition was determined via CellTiter-Glo cell viability assays. […] BT474-J4 and HN5C12 were washed with PBS and plated in their culture media without lapatinib. […] ATP levels were determined by adding Cell Titer Glo0 (Promega), incubating for 20 minutes then the luminescent signal was read on the SpectraMax M5 plate with a 0.5 second integration time. Cell growth was calculated relative to vehicle (DMSO) treated control wells. […] y=([…]) where A is the minimum response (ymin), B is the maximum response (ymax), c is the inflection point of the curve (EC50), d is the Hill coefficient, and x is the log10 compound concentration (moles/L). CI values were calculated with the interpolated IC50 values and the mutually non-exclusive equation derived by Chou and […](a)+Db/IC50(b)+(Da×Db)/(IC50(a)×IC50(b)) where IC50(a) is the IC50 of the inhibitor A; IC50(b) is the IC50 for the inhibitor B; […] Excess Over Highest Single Agent (EOHSA) is defined as a statistically significant improvement in the combination compared to the component monotherapies. […] See Borisy et al. (2003) or Hung et al. (1993) for examples and discussion. Analysis was conducted using two-factor analysis of variance with interaction (model terms were dose of drug A, dose of drug B, and interaction between doses of drug A and B), followed by linear contrasts between each combination group and corresponding monotherapies. Analysis was conducted using SAS (version 9, provided by SAS Institute, Cary, N.C.). EOHSA at each dose was calculated as the minimum difference in average % inhibition between the combination and each monotherapy, from the appropriate ANOVA contrast. Since there are many comparisons for the % inhibition endpoint, p-value adjustment for multiple comparisons was performed. Hommel's procedure was implemented in order to improve the power while retaining […] Error Rate (FWE) control by using a sequentially rejective method. The p-values for both synergy and antagonism were calculated using this adjustment.

[2] = test system: HN5 head and neck carcinoma cells; assay: Cell growth inhibition (CellTiter-Glo), HN5; details: Homo sapiens, 72 h, 3 days
Excerpt: as §1

[3] = test system: ovary_SKOV3 tumor cells; assay: Cell growth inhibition (CellTiter-Glo), SKOV3; details: Homo sapiens, SK-OV-3, 72 h, 3 days
Description: Cell growth inhibition was determined via CellTiter-Glo cell viability assays. […] BT474-J4 and HN5C12 were washed with PBS and plated in their culture media without lapatinib. […] ATP levels were determined by adding Cell Titer Glo0 (Promega), incubating for 20 minutes then the luminescent signal was read on the SpectraMax M5 plate with a 0.5 second integration time. Cell growth was calculated relative to vehicle (DMSO) treated control wells. […] y=([…]) where A is the minimum response (ymin), B is the maximum response (ymax), c is the inflection point of the curve (EC50), d is the Hill coefficient, and x is the log10 compound concentration (moles/L). CI values were calculated with the interpolated IC50 values and the mutually non-exclusive equation derived by Chou and […](a)+Db/IC50(b)+(Da×Db)/(IC50(a)×IC50(b)) where IC50(a) is the IC50 of the inhibitor A; IC50(b) is the IC50 for the inhibitor B; […] Excess Over Highest Single Agent (EOHSA) is defined as a statistically significant improvement in the combination compared to the component monotherapies. […] In statistical terms, the maximum of the p-value's for the two comparisons Aq+Br vs Aq and Aq+Br vs Br should be less than or equal to an appropriate cutoff, p≦0.05. EOHSA is a common approach for evaluating drug combinations, and is an FDA criterion (21 CRF 300.50) for combination drug approval. See Borisy et al. (2003) or Hung et al. (1993) for examples and discussion. Analysis was conducted using two-factor analysis of variance with interaction (model terms were dose of drug A, dose of drug B, and interaction between doses of drug A and B), followed by linear contrasts between each combination group and corresponding monotherapies. Analysis was conducted using SAS (version 9, provided by SAS Institute, Cary, N.C.). EOHSA at each dose was calculated as the minimum difference in average % inhibition between the combination and each monotherapy, from the appropriate ANOVA contrast. Since there are many comparisons for the % inhibition endpoint, p-value adjustment for multiple comparisons was performed. Hommel's procedure was implemented in order to improve the power while retaining […] Error Rate (FWE) control by using a sequentially rejective method. The p-values for both synergy and antagonism were calculated using this adjustment.

Row | IC50 ([1]; skin_A431, +HGF (2 ng/mL)) [µM] | IC50 ([1]; skin_A431, −HGF) [µM] | IC50 ([2]; hn_HN5, +HGF (2 ng/mL)) [µM] | IC50 ([2]; hn_HN5, −HGF) [µM] | IC50 ([3]; ovary_SKOV3, +HGF (2 ng/mL)) [µM] | IC50 ([3]; ovary_SKOV3, −HGF) [µM] | Structure (SMILES)
1 | 4.6 | 2.19 | 3.69 | 2.37 | 5.67 | 5.02 | CS(=O)(=O)CCNCc1ccc(-c2ccc3ncnc(Nc4ccc(OCc5cccc(F)c5)c(Cl)c4)c3c2)o1 [Lapatinib, N-(3-chloro-4-{[(3-fluorophenyl)methyl]oxy}phenyl)-6-[5-({[2-(methylsulfonyl)ethyl]amino}methyl)-2-furanyl]-4-quinazolinamine]
2 | > 10 | 3.22 | > 10 | 6.72 | 5.39 | 5.62 | C#Cc1cccc(Nc2ncnc3cc(OCCOC)c(OCCOC)cc23)c1 [Erlotinib, N-(3-ethynylphenyl)-6,7-bis{[2-(methyloxy)ethyl]oxy}-4-quinazolinamine]
